# Data from the supplement of paper PMC13380429.
# Columns and labels:
# Details in all cases: 72 h
# Caco-2 [1] = assay: cell viability relative to DMSO; higher = less toxic
# Calu-3 [2] = assay: as above
# HepG2 [3] = assay: as above
# U2OS [4] = assay: as above
# Vero E6 [5] = assay: as above
# Caco-2 [6] = assay: relative viability EC50 (midpoint between 100% and the lowest measured viability); higher = less toxic
# Calu-3 [7] = assay: as above
# HepG2 [8] = assay: as above
# U2OS [9] = assay: as above
# Vero E6 [10] = assay: as above
# Caco-2 [11] = assay: drug sensitivity score (DSS) for viability; higher = more toxic; extreme values may be limits of the assay
# Calu-3 [12] = assay: as above
# HepG2 [13] = assay: as above
# U2OS [14] = assay: as above
# Vero E6 [15] = assay: as above
Structure (SMILES),cell viability (Caco-2 [1]; 1 nM) [%],cell viability (Caco-2 [1]; 10 nM) [%],cell viability (Caco-2 [1]; 100 nM) [%],cell viability (Caco-2 [1]; 1000 nM) [%],cell viability (Caco-2 [1]; 10000 nM) [%],cell viability (Calu-3 [2]; 1 nM) [%],cell viability (Calu-3 [2]; 10 nM) [%],cell viability (Calu-3 [2]; 100 nM) [%],cell viability (Calu-3 [2]; 1000 nM) [%],cell viability (Calu-3 [2]; 10000 nM) [%],cell viability (HepG2 [3]; 1 nM) [%],cell viability (HepG2 [3]; 10 nM) [%],cell viability (HepG2 [3]; 100 nM) [%],cell viability (HepG2 [3]; 1000 nM) [%],cell viability (HepG2 [3]; 10000 nM) [%],cell viability (U2OS [4]; 1 nM) [%],cell viability (U2OS [4]; 10 nM) [%],cell viability (U2OS [4]; 100 nM) [%],cell viability (U2OS [4]; 1000 nM) [%],cell viability (U2OS [4]; 10000 nM) [%],cell viability (Vero E6 [5]; 1 nM) [%],cell viability (Vero E6 [5]; 10 nM) [%],cell viability (Vero E6 [5]; 100 nM) [%],cell viability (Vero E6 [5]; 1000 nM) [%],cell viability (Vero E6 [5]; 10000 nM) [%],relative viability EC50 (Caco-2 [6]) [µM],relative viability EC50 (Calu-3 [7]) [µM],relative viability EC50 (HepG2 [8]) [µM],relative viability EC50 (U2OS [9]) [µM],relative viability EC50 (Vero E6 [10]) [µM],drug sensitivity score (Caco-2 [11]),drug sensitivity score (Calu-3 [12]),drug sensitivity score (HepG2 [13]),drug sensitivity score (U2OS [14]),drug sensitivity score (Vero E6 [15])
CN[C@@H](C)CCC=C(C)C [isometheptene-mucate],93.4,102,93.7,93.9,106,94,100,98.1,100,108,96.1,101,107,94.5,95,104,96.5,98.7,103,105,91.1,96.2,92.5,97,104,> 10,> 10,> 10,> 10,> 10,0,0,0,0,0
O=C(O)Cc1ccc2c(c1)C(=O)c1ccccc1CO2 [isoxepac],94.7,102,109,100,93.6,96.9,97.9,98.5,101,98.5,99.1,103,97.5,101,91.2,102,95.4,101,98.3,101,98.3,97.5,101,101,100,> 10,> 10,> 10,> 10,> 10,0,0,0,0,0
O=c1c(-c2ccc(O)cc2)coc2c([C@@H]3O[C@H](CO)[C@@H](O)[C@H](O)[C@H]3O)c(O)ccc12 [kakonein],122,104,108,106,96.3,104,99.3,111,102,95.5,95.7,97.7,84.6,99.6,93.5,99.2,95.1,99.3,95.2,97.9,98,103,99.1,95.3,91.8,> 10,> 10,> 10,> 10,> 10,0,0,0,0,0
O=C(O)c1cc(=O)c2ccccc2[nH]1 [kynurenic-acid],94.9,101,99.6,99.6,106,89.7,89.2,97.1,94.1,104,93.9,94.2,99.1,108,96,104,101,103,97,98.8,96.9,98.7,97.6,97.5,97.7,> 10,> 10,> 10,> 10,> 10,0,0,0,0,0
